Assay results from patent US10391070B2, “Compositions and methods for treating neurological diseases or injury” (MUSC FOUNDATION FOR RESEARCH DEVELOPMENT, priority 2012, dated 2019).

Assays:
zebrafish larvae = test: Zebrafish larval toxicity (NOEC, lethal dose); format: in vivo; settings: 7 dpf zebrafish larvae
Method: Using a 96-well plate, one zebrafish larva (7 dpf) was placed in each well in 100 μL of tank water (TW). 100 μL of each compound (0.5-15 μM) was then added to each well for 12 animals (one row) to give a final volume of 200 […]. A control row was tested for DMSO toxicity effects. […] Each drug was assessed for the no observed effect concentration (NOEC), the highest non-lethal dose resulting in no apparent toxic effects.
Zebrafish (AB strain) were obtained from the Zebrafish International Resource Center (supported by P40 RR012546 from NIH-NCRR). Zebrafish were maintained and crossed according to standard methods (Westerfield, 2000). Fertilized eggs were collected and placed in E3 embryo medium and positioned in an incubator set at 28.5° C. with a 14/10 h light/dark cycle (Kimmel et al., 1995). To determine the lethal dose of each compound, 96-well plates containing one zebrafish (7 days post-fertilization, dpf) per well in 100 μL of tank water were used. 100 μL of each compound (0.5 to 15 μM) was added to each well for 12 animals (one row) for a final volume of 200 μL. One row of larvae was used as DMSO only controls. […] All zebrafish studies were approved by the Medical University of South Carolina Institutional Animal Care and Use Committee (AR #2850) and performed in accordance with the guidelines.
Using a 96-well plate, one zebrafish larva (7 dpf) was placed in each well in 100 μL of tank water. 100 μL of each compound was then added to each well for 12 animals (one row) for a final volume of 200 μL. One row of zebrafish larvae was used as DMSO only controls. […] Toxicity was also measured in the mouse model by the NIH Anticonvulsant Screening Program at the National Institute of Neurological Disorders and Stroke (Stables and Kupferberg, 1997), according to the established NIH experimental procedures. Compounds were delivered into mice by intraperitoneal (i.p.) injection at a dose of 100 mg/kg in sterile 5% DMSO, 95% Neobee (Josey et al., 2013). Acute toxicity was assessed by monitoring the animals for impaired neuromuscular function by placing treated mice on a rod rotating at 6 rpm. […]

HT-22 neuronal cells = test: Respirometry (OCR, ECAR; Seahorse XF-96); format: cell-based, mouse; parameters: ECAR (glycolysis), difference from control: unit not given here; settings: HT-22 cells, mean±SEM
Method: Oxygen consumption rates (OCR) and extracellular acidification rates (ECAR) of HT-22 neuronal cells were performed on the XF-96 Extracellular Flux Analyzer (Seahorse Bioscience) using standard methods (Beeson et al., 2010). In brief, cells were cultured in 96 well Seahorse plates in DMEM high glucose media (Invitrogen) supplemented with 10% FBS, 10 mM HEPES, and 1% antibiotic-antimycotic (Invitrogen). The media was replaced with DMEM media supplemented with 25 mM glucose, 10 mM sodium pyruvate, 31 mM NaCl, and 2 mM glutamine at pH 7.4. Each of the four drug ports on the Seahorse sensor cartridge were filled with test compound (media only, 5 μM NQN-1, 10 μM VK3 or 12.5 μM MB), 10 μM oligomycin, 1 μM FCCP, and 5 μM rotenone, which were injected into each well at 20, 80, 110, and 135 min, respectively. The pmol/min OCR rate for each well (9-52 wells/group) was measured. Wells were excluded from the analysis if their OCR values surpassed the Tukey Outlier Rule. In order to standardize the OCR rates across wells, the average OCR value at 17 min (last time point prior to injection of the test compounds) for each experimental group was calculated, and set to 100. All OCR values are given as a percentage of this pre-treatment value. […]

PTZ-induced seizures = test: PTZ-induced seizure (swim activity) model in zebrafish larvae; format: in vivo, zebrafish (Danio rerio)
Method: The DanioVision locomotion tracking instrument with Ethovision XT software (Noldus) was used to measure the severity of the seizures by quantifying the locomotor activity of each fish.
In a 48-well plate, one 6-7 dpf larva was added per well. Compounds were given at a sub-lethal dose and treated for 1 h. Three control rows were included—tank water (TW) only, PTZ only and PTZ+VPA (2-4 mM final concentration of VPA). […] After 5 min, the plate was transferred to the Daniovision apparatus and the chamber light was turned on. After 2 min, Ethovision was used to determine the distance traveled (a marker of seizure of activity) by each fish for 15 min (25 frames per second). Velocity, duration of movement, and frequency of movement were also determined from the same recording. After measurement, fish were monitored visually for survival. The distance moved over the recording period with Ethovision XT software (Noldus) was averaged over 8 wells per treatment unless the fish was not detected.
In a 48-well plate, one 7 dpf zebrafish was added per well. Larvae were dosed with each compound at a sub-lethal dose 1 h prior to PTZ treatment. Three control rows were included with each experiment—tank water only control, PTZ only and PTZ+VPA (4 mM final concentration of VPA). […] After 5 min, the plate was transferred to the Daniovision instrument (Noldus Information Technology) and the chamber light was turned on. After 2 min, MediaRecorder (Noldus) was used to record video for 15 min. A small number of videos were acquired 25 frames per second, but the majority of the data was acquired at the frame rate of 60 frames per second. After recording, fish were monitored visually for survival. Ethovision XT software (Noldus) was used to track the fish movement from the video images in order to calculate the total distance traveled over 15 min. […] All experimental comparisons were made between animals from the same clutch.

c-fos = c-fos gene expression in PTZ-treated zebrafish larvae; format: in vivo, zebrafish (Danio rerio); settings: 7 dpf zebrafish, pre-treatment
Method: Ten 7 dpf larvae were placed in 500 μL tank water in wells of a 48-well cell-culture plate and appropriate concentrations of drugs were added as in the behavior study (Table 9). After a 1 h pre-incubation period, PTZ was added to a final concentration of 15 mM in appropriate wells and larvae were incubated for a further 45 min. Fish were quickly euthanized by incubating the plate in an ice-water bath for 15 min. Fish were removed from each well and all liquid removed before freezing at −80° C. RNA was extracted using Trizol (Invitrogen) followed by the RNeasy Mini kit (Qiagen). Frozen embryos were homogenized in 800 μL Trizol using in-tube pestles and a motorized homogenizer. Following a 5-min incubation at room temperature, 200 μL chloroform was added and the samples were centrifuged at 12,000 g for 10 min. The aqueous phase was transferred to a new tube and 250 μL 100% ethanol was added and the samples mixed. This mixture was then transferred to the Qiagen minicolumn assembly and the protocol followed as described with the kit. Samples were eluted in 30 μL RNase free water and concentration was determined using the Nanodrop instrument (Thermo Fisher). cDNA was prepared using the RETROscript kit (Ambion) with 500 ng total RNA. cDNA was then diluted 1:1 with sterile dH2O and 2.5 μL of this cDNA was used in the QPCR reaction with SsoAdvanced SYBR Green Supermix (BioRad) and c-fos primers designed to span an intron-exon junction (c-fos F: […], SEQ ID NO:9; c-fos R: […], SEQ ID NO:10) ([…] each) in the BioRad CFX96 RealTime instrument. L13a and EF1a gene expression were used for normalization (Rahn et al., 2013). The following cycle conditions were used: 95° C./3 min, 40 cycles of 95° C./15 s, 62° C./30 s, followed by 95° C. 30 s and a dissociation curve. Samples were run in duplicate. The 2^−ΔΔCt method was used to quantify gene expression, whereby all gene Ct values were first normalized to Ct values of the geometric mean of the Ct of L13a and EF1a (Livak and Schmittgen, 2001). Treated samples were then normalized to the tank water control and converted to fold change.

HDAC = HDAC isozymes inhibited; cited from earlier work
HT22 cells [1] = test: Glutathione determination in glutamate-treated cells; format: cell-based, mouse; settings: HT22, 10 mM glutamate 8 hrs, 25 μM
Method: The content of total glutathione (reduced and oxidized) in the supernatant of cell homogenate was measured using the glutathione assay kit (Cayman Chemical) in microtiter plate assay, which utilizes an enzymatic recycling method, using glutathione reductase, for the quantification of glutathione. The sulfhydryl group of glutathione reacted with 5,5′-dithiobis-2-nitrobenzoic acid (DTNB) and produced a yellow-colored 5-thio-2-nitrobenzoic acid (TNB), which was measured at 405 nm.

HT22 cells [2] = test: t-BuOOH toxicity protection (MTS cell viability); format: cell-based, mouse; settings: HT22, 50 μM t-BuOOH
Method: Cell viability was assessed by the ability of the viable cells to metabolize 3-(4,5-dimethylthiazol-2-yl)-5-(3-carboxymethoxyphenyl)-2(4-sulfophenyl)2-H-tetrazolium, inner salt (MTS), as described previously (Cory et al., 1991). The metabolism of tetrazolium salts is often used to measure cellular proliferation, but in the system used here, it has been previously shown to correlate well with cell viability as determined by trypan blue exclusion and colony-forming assays (Davis and Maher, 1994). Briefly, HT-22 cells were seeded onto 96-well plates at 5.0×10^3 cells per well in 75 μL of medium and maintained at 37° C. in 5% CO2 overnight prior to the initiation of experimental treatments. For glutamate toxicity testing, cells were subsequently treated with 25 μL of medium containing glutamate (monosodium glutamate, Sigma, 1 M stock concentration in media, to achieve a final concentration of 10 mM) plus inhibitors (stock in DMSO) and maintained at 37° C. in 5% CO2. For t-BuOOH toxicity testing, cells were subsequently treated with 25 μL of medium containing t-BuOOH (Sigma, 10 mM stock concentration, to achieve a final concentration of 50 μM) plus inhibitors (stock in DMSO) and maintained at 37° C. in 5% CO2 for 3 hours, after which the media was removed, cells washed gently with HBSS, the media replaced with standard culture media, and the cells returned to incubation at 37° C. in 5% CO2. For both glutamate and t-BuOOH treatments, 10 μl of MTS solution was added to each well 24 hrs after initial treatment, and the cells were maintained in growth medium for 2 h at 37° C. Absorbance at 490 nm was subsequently measured by a SpectraMax 190 plate reader (Molecular Devices). The growth medium without cells in the presence of MTS solution was used as solution background and untreated cells were considered the controls. Cell viability was calculated as a percentage compared with untreated controls. EC50 determinations were based on 12-point titrations using GraphPad Prism, and each experiment was repeated at least four times. Morphology of HT22 cells following treatments was determined by phase-contrast microscopy. Digital images of cells grown on cell culture plates were captured at 10× magnification.
In light of the findings that the protection against glutamate induced cell death provided by VK2, 2q, and 2j, are at least partially mediated by the attenuation of the increased production of endogenous ROS, the inventors also examined the effects of these compounds on tert-butylhydroperoxide (t-BuOOH) induced cell death. t-BuOOH is a short chain analog of the lipid hydroperoxides formed from peroxidation reactions during oxidative stress that is cytotoxic to cells (Lemasters and Nieminen, 1997). […] It is well documented that cells undergo rapid and extensive fragmentation in the early stages of cell death (Bossy-Wetzel et al., 2003; Frank et al., 2001; Breckenridge et al., 2008; Jagasia et al., 2005; Lee et al., 2004). Recent studies have shown that mitochondrial fragmentation is regulated by the translocation of dynamin-related protein 1 (Drp1) from the cytosol to the mitochondria, where it assembles to form spirals at division sites (Smirnova et al., 2001). Although the exact molecular mechanism is still not well studied, the activity of Drp1 is regulated by the phosphorylation and dephosphorylation of specific serine residues by protein kinases and phosphatases such as calcineurin and the PGAM5 (Wang et al., 2012; Chang et al., 2007). […]

[3] = Antioxidant activity assay (DPPH free radical scavenging); settings: 20 μM, 100 μM DPPH in methanol
Method: Antioxidant activity of various reagents was assayed as previously described by monitoring the disappearance of the optical absorbance of the stable-free radical DPPH on reaction with test compounds (Blois, 1958). The rate of the reaction represents the antioxidant potency of test agents. The known free radical scavenger Trolox and ascorbic acid were used as positive controls. Briefly, 10 μL of test reagents at final concentrations of 20 μM were added to 200 μL of 100 μM DPPH in methanol. Optical absorbance of DPPH at 517 nm was immediately monitored for 10 min.

Row | Structure (SMILES) | Lethal dose (zebrafish larvae; up to 5 h treatment) [mM] | Highest concentration tested for anti-seizure activity (zebrafish larvae; highest sub-lethal dose) [mM] | basal cellular respiration, difference in OCR from control (HT-22 neuronal cells; 1 h treatment, OCR as percentage of pre-treatment value) | basal mitochondrial respiration, difference from control (HT-22 neuronal cells; basal minus non-mitochondrial (rotenone)) | ATP-linked respiration, difference from control (HT-22 neuronal cells; basal minus oligomycin) | ECAR (glycolysis), difference from control (HT-22 neuronal cells) | concentration required for effective reduction of seizures (PTZ-induced seizures; PTZ-treated zebrafish larvae) [µM] | Seizure suppression (PTZ-induced seizures; PTZ-treated zebrafish larvae, pretreated 1 hr at NOEC) | PTZ-induced swim activity (distance traveled) (PTZ-induced seizures; zebrafish larvae, 1 h pretreatment at sub-lethal concentration (VPA 4 mM, NQN-1 3 μM), 15 mM PTZ) | PTZ-induced increase in c-fos expression (c-fos) | HDAC Class of Inhibition (HDAC) | depletion of total cellular GSH (HT22 cells [1]) | protection from t-BuOOH induced cell death (HT22 cells [2]) | free radical scavenging capacity (DPPH absorbance) [3]
1 | O=C(NC1=CC(=O)c2ccccc2C1=O)c1ccccc1 [2-benzoylamino-1,4-naphthoquinone] | 0.005 | 0.003 | 24.35±1.03 | 15.26±2.29 | 16.83±1.83 | 1.75±1.12 | 3 | Yes | significantly suppressed PTZ-induced swim activity | able to blunt this increase in expression | 6 |  |  | 
2 | Cc1c(C)c2c(c(C)c1O)CCC(C)(C(=O)O)O2 (centres unmarked) [Trolox] |  |  |  |  |  |  |  |  |  |  |  | did not prevent GSH depletion | less effective | rapidly scavenged DPPH
